{"source": "paper PMC3928307", "about": "“Long-Term Activation upon Brief Exposure to Xanomleline Is Unique to M1 and M4 Subtypes of Muscarinic Acetylcholine Receptors” (PLoS ONE, 2014)", "key": {"[1]": {"biological_target": "T1, hM2 muscarinic receptor (Homo sapiens, UniProt P08172)", "T1 construct": "gene CHRM2; full-length receptor stably expressed in CHO cells; human G16 transiently co-transfected for calcium assay", "T1 sequence (P08172 1-466)": "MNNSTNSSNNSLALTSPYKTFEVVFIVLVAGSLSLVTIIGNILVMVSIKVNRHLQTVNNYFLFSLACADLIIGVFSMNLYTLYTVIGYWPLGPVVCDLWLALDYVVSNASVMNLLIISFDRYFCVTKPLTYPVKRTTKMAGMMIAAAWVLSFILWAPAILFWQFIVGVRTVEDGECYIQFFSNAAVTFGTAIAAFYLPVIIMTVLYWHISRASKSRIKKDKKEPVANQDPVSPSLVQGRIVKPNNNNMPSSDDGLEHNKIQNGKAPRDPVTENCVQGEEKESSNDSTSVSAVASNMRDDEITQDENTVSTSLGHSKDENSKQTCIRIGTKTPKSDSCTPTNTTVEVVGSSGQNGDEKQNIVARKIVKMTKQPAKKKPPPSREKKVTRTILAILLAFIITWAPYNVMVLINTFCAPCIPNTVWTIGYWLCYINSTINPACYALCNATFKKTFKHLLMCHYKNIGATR", "test": "Fura-2 intracellular calcium microfluorometry, CHO cells", "type": "cell-based", "conditions": "read-out: oxotremorine / pEC50 (converted)", "from_the_text": "Fura-2 intracellular calcium microfluorometry, CHO cells on hM2 muscarinic receptor"}, "[2]": {"biological_target": "T2, hM5 muscarinic receptor (Homo sapiens, UniProt P08912)", "T2 construct": "gene CHRM5; full-length receptor stably expressed in CHO cells (Missouri S&T cDNA Resource Center)", "T2 sequence (P08912 1-532)": "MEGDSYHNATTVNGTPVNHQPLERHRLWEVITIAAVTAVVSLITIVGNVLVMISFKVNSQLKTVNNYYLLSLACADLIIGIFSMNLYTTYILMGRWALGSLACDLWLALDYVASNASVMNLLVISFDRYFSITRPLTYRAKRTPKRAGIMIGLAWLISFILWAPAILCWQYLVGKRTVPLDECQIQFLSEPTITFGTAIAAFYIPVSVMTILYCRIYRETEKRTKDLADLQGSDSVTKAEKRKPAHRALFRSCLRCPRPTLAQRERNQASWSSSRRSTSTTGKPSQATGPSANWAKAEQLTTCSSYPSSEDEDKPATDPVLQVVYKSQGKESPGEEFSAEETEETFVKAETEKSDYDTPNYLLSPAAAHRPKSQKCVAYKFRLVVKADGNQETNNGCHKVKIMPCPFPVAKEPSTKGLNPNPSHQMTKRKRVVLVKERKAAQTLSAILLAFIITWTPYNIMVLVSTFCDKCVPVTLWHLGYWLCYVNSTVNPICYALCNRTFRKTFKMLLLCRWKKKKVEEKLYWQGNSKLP", "test": "Fura-2 intracellular calcium microfluorometry, CHO cells", "type": "cell-based", "conditions": "read-out: oxotremorine / pEC50 (converted)", "from_the_text": "Fura-2 intracellular calcium microfluorometry, CHO cells on hM5 muscarinic receptor"}, "[3]": {"biological_target": "T3, hM1 muscarinic receptor (Homo sapiens, UniProt P11229)", "T3 construct": "gene CHRM1", "T3 sequence (P11229 1-460)": "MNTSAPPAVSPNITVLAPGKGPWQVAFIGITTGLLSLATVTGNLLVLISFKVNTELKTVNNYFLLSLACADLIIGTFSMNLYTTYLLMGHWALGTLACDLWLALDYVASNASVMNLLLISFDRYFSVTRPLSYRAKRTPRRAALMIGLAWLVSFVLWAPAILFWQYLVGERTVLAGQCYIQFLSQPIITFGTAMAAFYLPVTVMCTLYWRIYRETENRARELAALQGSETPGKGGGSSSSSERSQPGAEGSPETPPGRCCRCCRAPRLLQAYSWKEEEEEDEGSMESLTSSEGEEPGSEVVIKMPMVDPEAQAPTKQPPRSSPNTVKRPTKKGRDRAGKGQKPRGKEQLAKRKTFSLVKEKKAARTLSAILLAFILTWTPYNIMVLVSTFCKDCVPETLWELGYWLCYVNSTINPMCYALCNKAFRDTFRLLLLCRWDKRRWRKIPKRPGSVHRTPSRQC", "test": "cell-based", "from_the_text": "Fura-2 intracellular calcium microfluorometry, CHO cells on hM1 muscarinic receptor"}, "[4]": {"biological_target": "T4, hM4 muscarinic receptor (Homo sapiens, UniProt P08173)", "T4 construct": "gene CHRM4", "T4 sequence (P08173 1-479)": "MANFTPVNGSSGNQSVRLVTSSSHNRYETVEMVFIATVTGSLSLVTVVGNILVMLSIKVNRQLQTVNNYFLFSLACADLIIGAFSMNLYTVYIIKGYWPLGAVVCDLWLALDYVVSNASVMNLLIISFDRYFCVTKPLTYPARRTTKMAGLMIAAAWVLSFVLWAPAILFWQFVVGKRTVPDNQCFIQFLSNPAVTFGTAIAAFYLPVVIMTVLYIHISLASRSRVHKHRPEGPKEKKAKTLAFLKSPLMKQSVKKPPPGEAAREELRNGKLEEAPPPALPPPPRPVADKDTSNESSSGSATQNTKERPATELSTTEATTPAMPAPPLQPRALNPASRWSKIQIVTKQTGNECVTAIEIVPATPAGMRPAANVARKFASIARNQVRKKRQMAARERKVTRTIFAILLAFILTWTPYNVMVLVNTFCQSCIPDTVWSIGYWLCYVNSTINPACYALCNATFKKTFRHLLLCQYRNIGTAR", "test": "cell-based"}, "[5]": {"biological_target": "T5, hM3 muscarinic receptor (Homo sapiens, UniProt P20309)", "T5 construct": "gene CHRM3; full-length receptor stably expressed in CHO cells (Missouri S&T cDNA Resource Center)", "T5 sequence (P20309 whole entry)": "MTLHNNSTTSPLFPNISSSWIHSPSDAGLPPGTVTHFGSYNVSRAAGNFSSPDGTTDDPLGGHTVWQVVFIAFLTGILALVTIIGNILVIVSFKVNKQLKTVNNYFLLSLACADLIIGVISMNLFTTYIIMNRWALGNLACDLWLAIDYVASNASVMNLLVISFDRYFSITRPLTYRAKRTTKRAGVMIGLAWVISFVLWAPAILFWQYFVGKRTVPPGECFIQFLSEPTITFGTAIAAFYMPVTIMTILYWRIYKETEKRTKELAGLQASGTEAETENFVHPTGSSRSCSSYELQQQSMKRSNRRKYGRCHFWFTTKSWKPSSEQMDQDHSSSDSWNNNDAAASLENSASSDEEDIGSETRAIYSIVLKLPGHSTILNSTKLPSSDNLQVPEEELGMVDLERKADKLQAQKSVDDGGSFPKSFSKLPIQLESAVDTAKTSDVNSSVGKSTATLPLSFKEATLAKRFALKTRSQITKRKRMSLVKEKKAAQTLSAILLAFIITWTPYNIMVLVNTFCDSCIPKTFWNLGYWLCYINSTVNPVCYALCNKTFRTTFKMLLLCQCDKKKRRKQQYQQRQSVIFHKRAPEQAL", "test": "Fura-2 intracellular calcium microfluorometry, CHO cells", "type": "cell-based", "conditions": "read-out: oxotremorine / pEC50 (converted)", "from_the_text": "Fura-2 intracellular calcium microfluorometry, CHO cells on hM3 muscarinic receptor"}}, "data": [{"smiles": "O=C1CCCN1CC#CCN1CCCC1", "note": "[oxotremorine]", "values": [{"measurement": "EC50", "setting": "[1]", "value": 64.6, "unit": "nM"}, {"measurement": "EC50", "setting": "[2]", "value": 51.3, "unit": "nM"}, {"measurement": "EC50", "setting": "[3]", "value": 46.8, "unit": "nM"}, {"measurement": "EC50", "setting": "[4]", "value": 67.6, "unit": "nM"}, {"measurement": "EC50", "setting": "[5]", "value": 46.8, "unit": "nM"}]}]}
